The results in this text go back to patent publication US20190185479A1, “BICYCLIC NITROGENATED HETEROCYCLIC COMPOUND” (MITSUBISHI TANABE PHARMA CORPORATION, priority 2016, published 2019).

Common to all, as to type: biochemical
For experiment [1], the target named is T1, hPDE8B (Homo sapiens, UniProt O95263).
T1 construct: purchased SB Drug Discovery
The experiment can be described thus: PDE7 selectivity test (Ki value), Experimental Example 2: hPDE8B. The following applies: Ki from IC50 by Cheng-Prusoff, read-out: PDE inhibition constant Ki, PDE8. The protocol: (§1) hPDE1A, hPDE2A, hPDE3A, hPDE4D, hPDE5A, and hPDE8B were purchased from SB Drug Discovery. hPDE7B was isolated by the same method as [Method for preparing samples 1], and hPDE9A, hPDE10A, and hPDE11A were isolated by the same method as hPDE7B, i.e., isolated from COS-7 cells transfected with plasmids encoding each PDE. PDE6 was purified and isolated from bovine retina (bovine PDE6).
(§2) Prior to the calculation of Ki value, Km value of each PDE against cAMP or cGMP was calculated. Each PDE diluted with an assay buffer so that it would have an appropriate enzyme activity, and six or more concentrations of cAMP or cGMP were reacted at room temperature for 60 minutes. Regarding PDE using cAMP as a substrate, PDELight (trademark) HTS cAMP phosphodiesterase Kit (Lonza) was used to measure a degradation product, 5′-AMP. Also, regarding PDE using cGMP as a substrate, […] of perchloric acid was added to the mixture to stop the reaction, and the resulting mixture was subjected to LC-MS/MS to measure the residual cGMP concentration. The amount of degraded substrate in each substrate concentration was calculated, the concentration of the added substrate was plotted on the horizontal axis, the amount of degraded substrate was plotted on the vertical axis, and Km value was calculated by non-linear regression on the basis of Michaelis-Menten equation. Km value (substrate) of each PDE was hPDE1A: 4.3 (cGMP), hPDE2A: 36 (cAMP), hPDE3A: 0.11 (cAMP), hPDE4D: 0.90 (cAMP), hPDE5A: 3.9 (cGMP), bovine PDE6:9.8 (cGMP), hPDE7B: 0.015 (cAMP), hPDE8B: 0.63 (cAMP), hPDE9A: 0.0037 (cGMP), hPDE10A: 0.051 (cAMP), and hPDE11A: 1.4 (cAMP) μmol/L, respectively.
(§3) Next, PDE inhibition assay of a compound was carried out using each PDE. The PDE inhibition assay was basically carried out by the same enzyme reaction method as [Assay procedure 1], and the degraded amount of cAMP or cGMP was measured by the same method as [Assay procedure 2]. In the assay, a concentration approximated to Km value of each PDE against cAMP or cGMP was used as a substrate concentration. Meanwhile, regarding hPDE5A, hPDE8B, and hPDE9A, IMAP (trademark) FP Phosphodiesterase Evaluation Assay Kit (Molecular Devices) was used to measure the degradation of FAM-cAMP or FAM-cGMP by fluorescence depolarization technique.
(§4) Each compound was evaluated at six or more concentrations with common ratio 10. Each inhibition rate was calculated according to <Method for data calculation 1>, and then each IC50 value was calculated by sigmoid regression. The resulting IC50 value was used in the following Cheng-Prusoff equation to calculate each Ki value. Ki=IC50/(1+[S]/Km), wherein [S] represents a substrate concentration used

In experiment [2] the target is T2, hPDE9A (Homo sapiens, UniProt O76083).
T2 construct: made in house; host or cells: COS-7 cells
The experiment can be described thus: PDE7 selectivity test (Ki value), Experimental Example 2: hPDE9A. As to conditions: Ki from IC50 by Cheng-Prusoff, read-out: PDE inhibition constant Ki, PDE9. The method, then:
as §1, §2, §3, §4

Experiment [3] concerns the target T1, hPDE8B. The experiment is described as follows: PDE8 inhibition assay (IC50), Experimental Example 3. The following applies: hPDE8B; read-out: PDE inhibition assay IC50, PDE8. Summed up: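 Recombinant human enzymes incubated with compound and 3 nmol/L cAMP (final) in Tris-HCl pH 7.5 buffer with MgCl2, BSA, DTT, 2% DMSO final, 60 min at room temperature. Residual cAMP measured by TR-FRET (LANCE Ultra), reaction stopped with 0.5 mmol/L IBMX. IC50 from inhibition relative to no-compound (0%) and no-enzyme (100%) controls.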

The target of experiment [4] is T3, hPDE2A (Homo sapiens, UniProt O00408).
T3 construct: purchased SB Drug Discovery
The experiment is described as follows: PDE7 selectivity test (Ki value), Experimental Example 2: hPDE2A. As to conditions: Ki from IC50 by Cheng-Prusoff, read-out: PDE inhibition constant Ki, PDE2. The method, then:
as §1, §2, §3, §4

The target of experiment [5] is T4, Human PDE7B (hPDE7B) (Homo sapiens, UniProt Q9NP56).
T4 construct: made in house; host or cells: COS-7 cells
The experiment can be described thus: Measurement of PDE7 inhibitory activity (Experimental Example 1; residual cAMP, LANCE Ultra cAMP TR-FRET). The following applies: cAMP 3 nmol/L, room temperature 60 minutes. Summed up: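 hPDE7B from transfected COS-7 cells reacted with 3 nmol/L cAMP (final) and compound (2% DMSO) in 50 mmol/L Tris-HCl pH 7.5, 1 mmol/L MgCl2, 0.1% BSA, 0.5 mmol/L DTT, 60 min at room temperature. Reaction stopped with IBMX; residual cAMP measured by TR-FRET. Inhibition scaled between no-compound and no-enzyme controls.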
For orientation: TR-FRET usually uses a lanthanide donor and a delayed reading to cut background.

The target in experiment [6] is T5, hPDE5A (Homo sapiens, UniProt O76074).
T5 construct: purchased SB Drug Discovery
The experiment can be described thus: PDE7 selectivity test (Ki value), Experimental Example 2: hPDE5A. As to conditions: Ki from IC50 by Cheng-Prusoff, read-out: PDE inhibition constant Ki, PDE5. The method, then: as §1, §2, §3, §4

For experiment [7], the target named is T6, hPDE11A (Homo sapiens, UniProt Q9HCR9).
T6 construct: made in house; host or cells: COS-7 cells
The experiment can be described thus: PDE7 selectivity test (Ki value), Experimental Example 2: hPDE11A. As to conditions: Ki from IC50 by Cheng-Prusoff, read-out: PDE inhibition constant Ki, PDE11. The protocol: as §1, §2, §3, §4

T1 sequence (O95263 whole entry): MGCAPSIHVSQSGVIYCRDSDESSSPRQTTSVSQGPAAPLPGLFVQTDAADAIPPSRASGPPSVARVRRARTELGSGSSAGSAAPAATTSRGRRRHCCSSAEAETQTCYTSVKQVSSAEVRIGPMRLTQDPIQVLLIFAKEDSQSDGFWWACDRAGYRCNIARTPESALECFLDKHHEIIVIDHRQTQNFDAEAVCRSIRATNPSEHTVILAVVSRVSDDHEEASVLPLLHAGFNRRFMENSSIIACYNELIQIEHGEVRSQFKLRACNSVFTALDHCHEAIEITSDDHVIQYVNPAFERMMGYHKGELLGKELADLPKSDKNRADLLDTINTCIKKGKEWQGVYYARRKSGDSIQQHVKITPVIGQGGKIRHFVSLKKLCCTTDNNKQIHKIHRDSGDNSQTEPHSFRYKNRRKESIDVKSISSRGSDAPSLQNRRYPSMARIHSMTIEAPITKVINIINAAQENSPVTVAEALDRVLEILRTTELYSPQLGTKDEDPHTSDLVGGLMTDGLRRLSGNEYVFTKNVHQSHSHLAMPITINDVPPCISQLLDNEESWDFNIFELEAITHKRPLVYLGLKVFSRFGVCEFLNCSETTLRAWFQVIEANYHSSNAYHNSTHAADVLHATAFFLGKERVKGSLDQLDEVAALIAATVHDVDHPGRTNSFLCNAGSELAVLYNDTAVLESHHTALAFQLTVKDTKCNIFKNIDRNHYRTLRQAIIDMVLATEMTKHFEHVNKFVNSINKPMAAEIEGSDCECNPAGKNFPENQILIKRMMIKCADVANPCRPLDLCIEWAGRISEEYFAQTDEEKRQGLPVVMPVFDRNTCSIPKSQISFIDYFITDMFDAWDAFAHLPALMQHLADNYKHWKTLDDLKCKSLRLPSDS
T3 sequence (O00408 whole entry): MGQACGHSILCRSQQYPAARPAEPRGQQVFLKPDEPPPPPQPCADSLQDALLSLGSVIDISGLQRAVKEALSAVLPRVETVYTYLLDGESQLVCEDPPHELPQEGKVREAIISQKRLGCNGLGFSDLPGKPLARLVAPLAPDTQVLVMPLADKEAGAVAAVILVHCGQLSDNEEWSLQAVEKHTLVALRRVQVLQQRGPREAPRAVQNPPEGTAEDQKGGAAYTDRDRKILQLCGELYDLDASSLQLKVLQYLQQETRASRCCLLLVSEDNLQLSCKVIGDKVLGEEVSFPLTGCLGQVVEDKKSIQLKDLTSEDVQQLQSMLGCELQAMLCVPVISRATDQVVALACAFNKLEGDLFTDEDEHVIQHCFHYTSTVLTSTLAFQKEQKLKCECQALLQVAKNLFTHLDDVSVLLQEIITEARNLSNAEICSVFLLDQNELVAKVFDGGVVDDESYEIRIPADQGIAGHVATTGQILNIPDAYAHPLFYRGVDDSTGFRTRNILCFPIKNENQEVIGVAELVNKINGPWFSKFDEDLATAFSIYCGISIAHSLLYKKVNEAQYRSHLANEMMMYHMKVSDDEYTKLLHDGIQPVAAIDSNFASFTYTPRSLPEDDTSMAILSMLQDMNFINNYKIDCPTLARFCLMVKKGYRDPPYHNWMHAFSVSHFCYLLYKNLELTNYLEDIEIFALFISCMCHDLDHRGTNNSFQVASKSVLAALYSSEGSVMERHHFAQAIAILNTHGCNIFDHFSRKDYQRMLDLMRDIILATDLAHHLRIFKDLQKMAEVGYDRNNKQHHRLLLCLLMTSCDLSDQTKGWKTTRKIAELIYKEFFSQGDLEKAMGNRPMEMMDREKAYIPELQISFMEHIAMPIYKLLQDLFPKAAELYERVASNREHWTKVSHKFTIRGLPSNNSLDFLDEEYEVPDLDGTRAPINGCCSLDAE
T2 sequence (O76083 whole entry): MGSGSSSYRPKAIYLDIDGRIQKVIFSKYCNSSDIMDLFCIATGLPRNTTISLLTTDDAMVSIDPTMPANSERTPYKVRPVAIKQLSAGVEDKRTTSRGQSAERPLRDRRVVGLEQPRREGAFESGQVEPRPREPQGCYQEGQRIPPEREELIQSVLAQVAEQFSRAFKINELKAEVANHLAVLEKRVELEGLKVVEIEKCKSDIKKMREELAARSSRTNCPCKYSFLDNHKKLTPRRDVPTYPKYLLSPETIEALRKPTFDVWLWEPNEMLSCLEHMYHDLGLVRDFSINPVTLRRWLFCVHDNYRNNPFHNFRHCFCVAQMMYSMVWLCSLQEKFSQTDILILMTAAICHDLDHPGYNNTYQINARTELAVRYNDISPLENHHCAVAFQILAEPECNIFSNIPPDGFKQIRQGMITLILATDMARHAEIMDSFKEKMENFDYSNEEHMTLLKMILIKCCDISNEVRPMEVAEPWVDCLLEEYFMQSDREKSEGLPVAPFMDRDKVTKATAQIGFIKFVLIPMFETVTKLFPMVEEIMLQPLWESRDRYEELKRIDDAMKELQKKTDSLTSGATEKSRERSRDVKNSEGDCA
T6 sequence (Q9HCR9 whole entry): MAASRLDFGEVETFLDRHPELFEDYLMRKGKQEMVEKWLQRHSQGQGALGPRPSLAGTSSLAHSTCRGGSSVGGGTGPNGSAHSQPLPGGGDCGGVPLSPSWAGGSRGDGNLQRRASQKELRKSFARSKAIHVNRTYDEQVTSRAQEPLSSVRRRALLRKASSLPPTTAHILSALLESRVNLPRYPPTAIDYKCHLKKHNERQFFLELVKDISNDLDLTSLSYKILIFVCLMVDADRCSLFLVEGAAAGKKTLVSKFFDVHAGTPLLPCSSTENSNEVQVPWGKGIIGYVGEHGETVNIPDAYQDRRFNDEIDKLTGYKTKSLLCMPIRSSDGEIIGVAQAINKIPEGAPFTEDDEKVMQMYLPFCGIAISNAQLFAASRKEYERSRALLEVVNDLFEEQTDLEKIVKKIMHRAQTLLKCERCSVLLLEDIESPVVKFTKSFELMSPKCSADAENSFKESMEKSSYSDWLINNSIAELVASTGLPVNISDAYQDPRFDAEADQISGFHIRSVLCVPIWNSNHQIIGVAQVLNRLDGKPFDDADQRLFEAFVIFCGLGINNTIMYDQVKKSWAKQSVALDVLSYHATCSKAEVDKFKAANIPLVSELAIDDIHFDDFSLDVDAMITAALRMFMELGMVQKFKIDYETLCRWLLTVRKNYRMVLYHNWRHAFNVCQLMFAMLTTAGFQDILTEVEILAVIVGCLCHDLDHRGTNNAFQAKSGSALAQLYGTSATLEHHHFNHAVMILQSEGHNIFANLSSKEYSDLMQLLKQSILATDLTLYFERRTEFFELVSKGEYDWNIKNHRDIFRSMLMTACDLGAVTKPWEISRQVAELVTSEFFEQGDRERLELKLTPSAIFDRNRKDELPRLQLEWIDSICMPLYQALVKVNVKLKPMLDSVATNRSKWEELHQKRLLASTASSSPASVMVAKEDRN
T4 sequence (Q9NP56 whole entry): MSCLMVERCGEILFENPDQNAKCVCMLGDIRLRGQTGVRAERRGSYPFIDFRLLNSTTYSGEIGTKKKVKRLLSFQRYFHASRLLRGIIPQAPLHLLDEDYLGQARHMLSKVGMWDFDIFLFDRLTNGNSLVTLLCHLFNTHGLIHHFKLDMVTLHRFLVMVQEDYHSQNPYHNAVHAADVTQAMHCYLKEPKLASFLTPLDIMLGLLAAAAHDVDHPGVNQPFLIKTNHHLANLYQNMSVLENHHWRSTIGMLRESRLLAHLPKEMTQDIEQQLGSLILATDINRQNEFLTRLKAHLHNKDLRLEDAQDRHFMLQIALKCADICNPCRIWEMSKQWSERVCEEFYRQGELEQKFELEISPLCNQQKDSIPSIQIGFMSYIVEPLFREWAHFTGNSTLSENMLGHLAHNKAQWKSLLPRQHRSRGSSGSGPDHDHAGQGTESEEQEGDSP

For the compound `CC1CCCCC1n1nnc2c(N)ncnc21` (single isomer, unassigned) [Example 191, 3-(cis-2-methylcyclohexyl)-3H-[1,2,3]triazolo[4,5-d]pyrimidin-7-amine], the Ki is 5.3 µM in experiment [1], above 3.6 µM in experiment [2], 10 µM in experiment [4] and above 98 µM in experiment [6]. Besides, the half-inhibitory concentration (IC50) in experiment [3] is 5.33 µM; in experiment [5], below 0.01 µM.

`Nc1ncnc2c1nnn2C1CCCCC1` [Example 3, 3-cyclohexyl-3H-[1,2,3]triazolo[4,5-d]pyrimidin-7-amine]: the Ki in experiment [1] was 0.77 µM; in experiment [7], 29 µM; in experiment [2] it was above 3.6 µM; in experiment [4], 27 µM; in experiment [6] it was above 98 µM. Also, the IC50 in experiment [3] stood at 0.7 µM; in experiment [5], 0.05 µM.

For the compound `Cc1nc(N)c2nnn(C3CCCCC3)c2n1` [Example 4], the Ki in experiment [1] is 0.085 µM; in experiment [7] it was above 5 µM; in experiment [2], above 0.36 µM; in experiment [4], 6.6 µM; in experiment [6], above 9.8 µM. Moreover, inhibition in experiment [5] was half-maximal at 0.05 µM (IC50).

`Nc1nccn2c(C3CCCCC3)nnc12` [Example 141, 3-cyclohexyl[1,2,4]triazolo[4,3-a]pyrazin-8-amine]: the Ki in experiment [1] was 1.4 µM; in experiment [7] it was above 5 µM; in experiment [2] it was above 0.36 µM; in experiment [4], above 5.1 µM; in experiment [6], above 9.8 µM. Besides, the IC50 in experiment [3] was determined as 1.77 µM; in experiment [5], 0.01 µM.

On to `C[C@@H]1CCC[C@H](c2nnc3c(N)nccn23)C1` [Example 204, 3-[(1S,3R)-3-methylcyclohexyl][1,2,4]triazolo[4,3-a]pyrazin-8-amine], for which the Ki in experiment [1] was 1.4 µM; in experiment [7], 46 µM; in experiment [2], above 3.6 µM; in experiment [4], 14 µM; in experiment [6], above 98 µM. The IC50 in experiment [3] was 1.75 µM; in experiment [5], below 0.01 µM.

As usually defined, the Ki is a dissociation constant, usually derived from enzyme kinetics or from competition with a known ligand. The term IC50 denotes the concentration that inhibits the measured activity by half.
